Results reported in article PMC7429357 (Journal of medicinal chemistry, 2020).
Where two headings read alike, the source gives them in different places.

What was measured:
[1] = molecular target: T1, NTMT1 (Homo sapiens, UniProt Q9BV86); experiment: SAHH-coupled fluorescence assay; format: biochemical; conditions: for fold decrease in IC50 activity compared to 3: 10 min preincubation; for fold activity decrease compared to respective NAH-GPKRIA compound: 5 vs 1, 6 vs 2
T1 sequence (Q9BV86 1-223): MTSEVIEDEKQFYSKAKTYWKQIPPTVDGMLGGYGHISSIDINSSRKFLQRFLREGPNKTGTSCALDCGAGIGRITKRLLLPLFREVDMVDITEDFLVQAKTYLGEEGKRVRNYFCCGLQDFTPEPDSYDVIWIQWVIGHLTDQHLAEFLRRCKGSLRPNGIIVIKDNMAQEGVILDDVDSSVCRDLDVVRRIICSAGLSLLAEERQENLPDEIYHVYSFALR

[2] = tested on: NTMT1; conditions: MALDI-MS based assay; cited from earlier work
[3] = tested on: other methyltransferases; conditions: cited from earlier work
[4] = tested on: NTMT1; conditions: cited from earlier work
[5] = molecular target: T1, NTMT1; experiment: MALDI-MS methylation inhibition assay; format: biochemical; conditions: 10 min preincubation, 20 min
[6] = molecular target: euchromatic histone-lysine N-methyltransferase 2 (G9a) (Homo sapiens, UniProt Q96KQ7); conditions: at 100 μM
[7] = molecular target: SET domain-containing protein 7 (SETD7) (Homo sapiens, UniProt Q8WTS6); conditions: at 100 μM
[8] = molecular target: nicotinamide N-methyltransferase (NNMT) (Homo sapiens, UniProt P40261); conditions: at 100 μM
[9] = molecular target: Trypanosoma brucei protein arginine methyltransferase 7 (TbPRMT7) (Trypanosoma brucei brucei, UniProt Q582G4); experiment: biochemical
[10] = molecular target: T1, NTMT1

Chain of SET domain-containing protein 7 (SETD7) (Q8WTS6 whole entry, species assumed, the tested form may be a part): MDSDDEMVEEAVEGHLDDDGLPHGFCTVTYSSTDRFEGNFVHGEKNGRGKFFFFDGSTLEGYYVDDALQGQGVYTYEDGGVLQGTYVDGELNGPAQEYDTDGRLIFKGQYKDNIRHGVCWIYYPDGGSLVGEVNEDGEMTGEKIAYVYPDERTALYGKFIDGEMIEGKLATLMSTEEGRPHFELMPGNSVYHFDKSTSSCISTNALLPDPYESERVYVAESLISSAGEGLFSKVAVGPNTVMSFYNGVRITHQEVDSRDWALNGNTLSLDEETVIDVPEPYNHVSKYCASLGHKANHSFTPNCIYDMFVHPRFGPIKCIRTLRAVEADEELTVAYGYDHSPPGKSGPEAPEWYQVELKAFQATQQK
Chain of Trypanosoma brucei protein arginine methyltransferase 7 (TbPRMT7) (Q582G4 whole entry): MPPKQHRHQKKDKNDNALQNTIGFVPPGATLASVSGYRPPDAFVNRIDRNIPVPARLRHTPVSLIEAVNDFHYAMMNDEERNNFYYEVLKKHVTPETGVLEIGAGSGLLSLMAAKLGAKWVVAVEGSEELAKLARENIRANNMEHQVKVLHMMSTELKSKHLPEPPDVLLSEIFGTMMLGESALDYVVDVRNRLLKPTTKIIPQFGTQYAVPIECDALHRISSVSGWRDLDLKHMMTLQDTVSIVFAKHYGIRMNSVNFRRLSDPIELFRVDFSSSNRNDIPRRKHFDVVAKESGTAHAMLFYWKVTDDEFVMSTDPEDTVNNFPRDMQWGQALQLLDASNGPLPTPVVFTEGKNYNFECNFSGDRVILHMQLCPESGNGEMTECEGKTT
Chain of euchromatic histone-lysine N-methyltransferase 2 (G9a) (Q96KQ7 whole entry, species assumed, the tested form may be a part): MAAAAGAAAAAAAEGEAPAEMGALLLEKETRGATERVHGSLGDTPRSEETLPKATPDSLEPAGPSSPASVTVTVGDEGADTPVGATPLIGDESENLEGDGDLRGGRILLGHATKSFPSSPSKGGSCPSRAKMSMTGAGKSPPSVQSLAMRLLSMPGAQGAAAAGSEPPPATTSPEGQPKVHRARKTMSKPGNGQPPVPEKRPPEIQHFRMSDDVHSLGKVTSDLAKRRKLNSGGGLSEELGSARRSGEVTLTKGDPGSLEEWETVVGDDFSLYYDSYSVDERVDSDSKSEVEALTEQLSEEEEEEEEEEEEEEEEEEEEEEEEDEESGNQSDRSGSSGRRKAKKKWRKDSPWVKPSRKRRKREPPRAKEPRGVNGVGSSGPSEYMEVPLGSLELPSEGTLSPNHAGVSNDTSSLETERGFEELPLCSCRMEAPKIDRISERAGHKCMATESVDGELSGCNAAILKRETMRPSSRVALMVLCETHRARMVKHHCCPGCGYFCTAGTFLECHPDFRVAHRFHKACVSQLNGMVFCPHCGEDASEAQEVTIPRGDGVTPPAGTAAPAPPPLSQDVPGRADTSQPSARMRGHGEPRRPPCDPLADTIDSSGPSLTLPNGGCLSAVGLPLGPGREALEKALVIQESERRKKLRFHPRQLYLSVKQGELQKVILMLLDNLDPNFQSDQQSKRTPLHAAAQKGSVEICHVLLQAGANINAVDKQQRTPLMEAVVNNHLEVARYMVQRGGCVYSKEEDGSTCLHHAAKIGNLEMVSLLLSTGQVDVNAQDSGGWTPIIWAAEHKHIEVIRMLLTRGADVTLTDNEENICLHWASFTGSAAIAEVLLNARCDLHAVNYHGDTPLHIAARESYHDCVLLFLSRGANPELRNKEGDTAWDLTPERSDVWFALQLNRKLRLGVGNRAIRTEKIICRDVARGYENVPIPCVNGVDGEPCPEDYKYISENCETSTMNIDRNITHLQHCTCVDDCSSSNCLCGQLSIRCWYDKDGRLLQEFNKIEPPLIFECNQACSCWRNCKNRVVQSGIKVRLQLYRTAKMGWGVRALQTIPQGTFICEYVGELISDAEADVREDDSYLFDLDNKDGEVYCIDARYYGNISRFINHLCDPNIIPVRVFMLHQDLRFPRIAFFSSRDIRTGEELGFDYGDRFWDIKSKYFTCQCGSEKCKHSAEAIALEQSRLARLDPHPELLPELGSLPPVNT
Chain of nicotinamide N-methyltransferase (NNMT) (P40261 whole entry, species assumed): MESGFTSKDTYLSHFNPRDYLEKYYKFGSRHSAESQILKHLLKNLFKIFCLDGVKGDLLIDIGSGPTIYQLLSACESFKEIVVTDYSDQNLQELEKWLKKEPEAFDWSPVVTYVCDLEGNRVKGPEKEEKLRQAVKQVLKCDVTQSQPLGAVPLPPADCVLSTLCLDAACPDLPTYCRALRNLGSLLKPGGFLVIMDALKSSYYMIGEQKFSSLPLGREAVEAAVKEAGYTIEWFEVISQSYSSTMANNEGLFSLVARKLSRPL

Compound: N=C(N)NCCC[C@H](NC(=O)[C@H](CCCCN)NC(=O)[C@@H]1CCCN1C(=O)CNCCCCN(CC[C@H](N)C(=O)O)C[C@H]1O[C@@H](n2cnc3c(N)ncnc32)[C@H](O)[C@@H]1O)C(N)=O [Compound 7, NAH-C4-GPKR]
- fold better activity than 5 [1]: 4 fold
- fold better activity than 6 [1]: 2 fold

Compound: NAH-C3-PPKRIA
- IC50 [2]: 35 ± 2 nM
- selectivity against other methyltransferases [3]: more than 100 fold

Compound: CC[C@H](C)[C@H](NC(=O)[C@H](CCCNC(=N)N)NC(=O)[C@H](CCCCN)NC(=O)[C@@H]1CCCN1C(=O)CNCCCN(CC[C@H](N)C(=O)O)C[C@H]1O[C@@H](n2cnc3c(N)ncnc32)[C@H](O)[C@@H]1O)C(=O)N[C@@H](C)C(N)=O [Compound 2, NAH-C3-GPKRIA]
- fold decrease in IC50 activity compared to 3 [1]: 1.5 fold

Compound: N=C(N)NCCC[C@H](NC(=O)[C@H](CCCCN)NC(=O)[C@@H]1CCCN1C(=O)CNCCCN(CC[C@H](N)C(=O)O)C[C@H]1O[C@@H](n2cnc3c(N)ncnc32)[C@H](O)[C@@H]1O)C(N)=O [Compound 6, NAH-C3-GPKR]
- fold activity decrease compared to respective NAH-GPKRIA compound [1]: < 2 fold

Compound: NAH-C3-GPRRRS
- IC50 [4]: 940 ± 160 nM

Compound: CC[C@H](C)[C@H](NC(=O)[C@H](CCCNC(=N)N)NC(=O)[C@H](CCCCN)NC(=O)[C@@H]1CCCN1C(=O)CNCCCCN(CC[C@H](N)C(=O)O)C[C@H]1O[C@@H](n2cnc3c(N)ncnc32)[C@H](O)[C@@H]1O)C(=O)N[C@@H](C)C(N)=O [Compound 3, NAH-C4-GPKRIA]
- tri-methylation of GPKRIA peptide ([5]; 50 nM compound): substantially reduced
- tri-methylation of GPKRIA peptide ([5]; 200 nM compound): barely detected
- inhibitory activity [6]: barely showed inhibitory activity
- inhibitory activity [7]: barely showed inhibitory activity
- inhibitory activity [8]: barely showed inhibitory activity
- inhibition at 33 µM [9]: < 50%

Compound: N=C(N)NCCC[C@H](NC(=O)[C@H](CCCCN)NC(=O)[C@@H]1CCCN1C(=O)CNCCN(CC[C@H](N)C(=O)O)C[C@H]1O[C@@H](n2cnc3c(N)ncnc32)[C@H](O)[C@@H]1O)C(N)=O [Compound 5, NAH-C2-GPKR]
- fold activity decrease compared to respective NAH-GPKRIA compound [1]: < 2 fold

Compound: CC[C@H](C)[C@H](NC(=O)[C@H](CCCNC(=N)N)NC(=O)[C@H](CCCCN)NC(=O)[C@@H]1CCCN1C(=O)CNCCN(CC[C@H](N)C(=O)O)C[C@H]1O[C@@H](n2cnc3c(N)ncnc32)[C@H](O)[C@@H]1O)C(=O)N[C@@H](C)C(N)=O [Compound 1, NAH-C2-GPKRIA]
- fold decrease in IC50 activity compared to 3 [1]: 3 fold
- fold decrease in Ki, app in comparison with 3 [10]: 40 fold
